Entries after “also recorded” stand apart in the source; their conditions may differ. Where two headings read alike, the source gives them in different places. Marks after values point to notes of the source that are not given here.
What was measured:
[1] = test system: resistant Colo 320 colon adenocarcinoma cells expressing the ABCB1 transporter; experiment: Checkerboard combination assay with doxorubicin; format: cell-based, human
Experimental: A checkerboard microplate method was applied to study the effect of drug interactions between the selenocompounds and the chemotherapeutic drug doxorubicin on resistant Colo 320 colon adenocarcinoma cells expressing the ABCB1 transporter. Results were expressed in terms of the combination index (CI) values at 50% growth inhibition (ED50), which were determined by using CompuSyn software to plot 4 or 5 data points for each ratio.
To perform the experiment, the dilutions of doxorubicin were made in a horizontal direction in 100 µL, and the dilutions of the Se-compounds were made vertically in the microtiter plate in a volume of 50 µL. The cells were re-suspended in the culture medium and distributed into each well in 50 µL portions containing 6000 cells. The plates were incubated for 72 h at 37 °C in a CO2 incubator. The cell growth rate was determined after MTT staining. At the end of the incubation period, 20 μL of MTT solution was added to each well. After incubation at 37 °C for 4 h, 100 μL of SDS was added to each well and the plates were further incubated at 37 °C overnight. The optical density (OD) was measured at 540/630 nm with the Multiscan EX ELISA reader.

[2] = test system: HeLa (cervical adenocarcinoma); experiment: Cytotoxicity on HeLa cells; format: cell-based; settings: Homo sapiens
Experimental: The activity of selenoesters was tested on several cancer cell lines, including HepG2 (hepatocellular carcinoma, CCL-23TM, ATCC); HeLa (cervical adenocarcinoma, CCL-2TM, ATCC); B16 (skin melanoma, CCL-6322TM, ATCC); and a non-cancerous cell line, HDF (human dermal fibroblasts, Sigma-Aldrich). HepG2, HeLa, B16, and HDF cell lines were cultivated in EMEM medium supplemented with 10% FBS, 2 mM L-glutamine, and 1% penicillin-streptomycin mixture. The HaCaT cell line was cultivated in DMEM medium supplemented with 10% FBS and 1% penicillin-streptomycin mixture. All of the cells were cultivated in a CO2 incubator (5% CO2, 37 °C). Twice per week, the cell lines were passaged according to a standardized protocol with a trypsin-EDTA solution.
(§1) The selectivity indexes (SI) were calculated as the ratio of the IC50 value in the non-tumour cells and the IC50 in the cancer cell lines. The compound’s activity towards cancer cells is considered as strongly selective if the selectivity index (SI) value is higher than 6, moderately selective if 3 < SI < 6, slightly selective if 1 < SI < 3, and non-selective if SI is lower than 1 [16].

B16 (skin melanoma) = experiment: Cytotoxicity on B16 cells; format: cell-based, murine; settings: ratio IC50 non-tumour cells / IC50 cancer cells
[3] = test system: Colo 320/MDR-LRP human colonic adenocarcinoma cell line; experiment: Cytotoxicity (MTT) on resistant Colo 320 cells; format: cell-based; settings: for IC50: Homo sapiens, read-out: Colo 320 (IC50 µM) Mean; for SI MRC-5/Colo 320: ratio IC50 non-tumour cells / IC50 cancer cells
Excerpt: Three cell lines have been used in this study: the doxorubicin-sensitive Colo 205 (CCL-222, ATCC, Manassas, VA, USA) human colonic adenocarcinoma cell line; the multidrug resistant Colo 320/MDR-LRP expressing P-gp (MDR1)-LRP (CCL-220.1, ATCC) human colonic adenocarcinoma cell line; and the MRC-5 human embryonal lung fibroblast cell line (CCL-171, ATCC). The colon adenocarcinoma cell lines were purchased from LGC Promochem (Teddington, UK), and the MRC-5 cell line was purchased from Sigma-Aldrich (Merck KGaA, Darmstadt, Germany). Their culture conditions are as follows: Colo 205 (CCL-222, ATCC) and Colo 320/MDR-LRP expressing P-gp (MDR1)-LRP (CCL-220.1, ATCC) human colon adenocarcinoma cell lines were cultured in RPMI 1640 medium, supplemented with 10% FBS, 2 mM L-glutamine, 1 mM Na-pyruvate, and […]. The cell lines were incubated at 37 °C, 5% CO2, and 95% air atmosphere. The semi-adherent human colon cancer cells were detached with a Trypsin-Versene (EDTA) solution for 5 min at 37 °C. MRC-5 human embryonal lung fibroblast cells were cultured in EMEM containing 4.5 g/L of glucose and supplemented with a non-essential amino acid mixture, a selection of vitamins, and 10% FBS. The cell lines were incubated at 37 °C, 5% CO2, and 95% air atmosphere.
The effects of increasing concentrations of the compounds on cell growth were tested in 96-well flat-bottomed microtiter plates. Moreover, 10^4 of human colonic adenocarcinoma cells in 100 μL of the medium (RPMI-1640) were added to each well, except for the medium control wells. The adherent human embryonic lung fibroblast cell line was seeded in the EMEM medium for 4 h before the assay. The two-fold serial dilutions of the compounds were made in a separate plate (0.19–100 μM), and then transferred to the plates containing the adherent corresponding cell line. Culture plates were incubated at 37 °C for 24 h. At the end of the incubation period, 20 μL of MTT (thiazolyl blue tetrazolium bromide) solution (from a 5 mg/mL stock solution) were added to each well. After incubation at 37 °C for 4 h, 100 μL of sodium dodecyl sulfate (SDS) solution (10% SDS in 0.01 M HCl) was added to each well, and the plates were further incubated at 37 °C overnight. Cell growth was determined by measuring the optical density (OD) at 540 nm (ref. 630 nm) with a Multiscan EX ELISA reader (Thermo Labsystems, Cheshire, WA, USA). Inhibition of cell growth was expressed as IC50 values, defined as the inhibitory dose that reduces the growth of the cells exposed to the tested compounds by 50%. IC50 values and the SD of triplicate experiments were calculated by using GraphPad Prism software version 5.00 for Windows, with a non-linear regression curve fit (GraphPad Software, San Diego, CA, USA; www.graphpad.com, accessed on 12 July 2021). Doxorubicin (from a 2 mg/mL stock solution, Teva Pharmaceuticals) was used as a positive control.
as §1

[4] = in at least one of the ratios tested
[5] = ratio 0.7:1, starting conc. 6 µM
[6] = ratio 1.4:1, starting conc. 6 µM
[7] = ratio 2.8:1, starting conc. 6 µM
[8] = ratio 5.6:1, starting conc. 6 µM
[9] = ratio 11.2:1, starting conc. 6 µM
[10] = ratio 22.4:1, starting conc. 6 µM

Compound | Interaction with doxorubicin [1, 4] | Type of Interaction [1, 5] | Type of Interaction [1, 6] | Type of Interaction [1, 7] | Type of Interaction [1, 8] | Type of Interaction [1, 9] | Type of Interaction [1, 10] | IC50 [2] [µM] | SI MRC-5/B16 (B16 (skin melanoma)) | IC50 ([3]; COLO 320, 24 h, MTT) [µM] | SI MRC-5/Colo 320 [3] | also measured
CC(=O)C[Se]C(=O)c1ccc(F)c(Cl)c1 [K6, Se-(2-Oxopropyl) 3-Chloro-4-fluorobenzoselenoate] | synergistic manner; also recorded: interact synergistically | Synergism | Moderate synergism | Synergism | Synergism | Synergism | Synergism | 2.3 | 2.8 | 2.1 | 1.72 | Interaction with doxorubicin ([1]; in all ratios tested): synergistic interaction
CC(=O)C[Se]C(=O)c1cccc(C(F)(F)F)c1 [K5, Se-(2-Oxopropyl) 3-(Trifluoromethyl)benzoselenoate] | synergistic manner; also recorded: interact synergistically | Synergism | Moderate synergism | Synergism | Synergism | Synergism | Synergism | 2.5 | 2.8 | 2.17 | 1.43 | Interaction with doxorubicin ([1]; in all ratios tested): synergistic interaction
CC(=O)C[Se]C(=O)c1cc(F)c(F)cc1F [K8, Se-(2-Oxopropyl) 2,4,5-Trifluorobenzoselenoate] | synergistic manner; also recorded: interact synergistically | Strong synergism | Antagonism | Antagonism | Antagonism | Antagonism |  | 2 | 1.8 | 2.37 | 1.05 | 
CC(=O)C[Se]C(=O)c1ccccc1F [K2, Se-(2-Oxopropyl) 2-Fluorobenzoselenoate] |  | Antagonism | Antagonism | Slight antagonism | Additive effect | Antagonism | Antagonism | 2.5 | 2.1 | 2.38 | 1.06 | 
N#CC[Se]C(=O)c1cc(C(F)(F)F)cc(C(F)(F)F)c1 [N7, Se-(Cyanomethyl) 3,5-Bis(trifluoromethyl)benzoselenoate] | synergistic manner; also recorded: synergistic effect |  |  |  |  |  |  | 2.1 |  | 3.78 | >6 * | Type of Interaction ([1]; ratio 0.9:1, starting conc. 8 µM): Antagonism; Type of Interaction ([1]; ratio 1.8:1, starting conc. 8 µM): Strong antagonism; Type of Interaction ([1]; ratio 3.6:1, starting conc. 8 µM): Slight synergism; Type of Interaction ([1]; ratio 7.2:1, starting conc. 8 µM): Antagonism; Type of Interaction ([1]; ratio 14.4:1, starting conc. 8 µM): Antagonism; Type of Interaction ([1]; ratio 28.8:1, starting conc. 8 µM): Additive effect
N#CC[Se]C(=O)c1cccc(F)c1 [N2, Se-(Cyanomethyl) 3-Fluorobenzoselenoate] | synergistic manner; also recorded: synergistic effect |  |  |  |  |  |  | 5.2 | >6 * | 7.01 | >6 * | Type of Interaction ([1]; ratio 1.7:1, starting conc. 15 µM): Synergism; Type of Interaction ([1]; ratio 3.4:1, starting conc. 15 µM): Antagonism; Type of Interaction ([1]; ratio 6.8:1, starting conc. 15 µM): Synergism; Type of Interaction ([1]; ratio 13.6:1, starting conc. 15 µM): Moderate antagonism; Type of Interaction ([1]; ratio 27.2:1, starting conc. 15 µM): Antagonism; Type of Interaction ([1]; ratio 54.4:1, starting conc. 15 µM): Antagonism
N#CC[Se]C(=O)c1ccccc1C(F)(F)F [N4, Se-(Cyanomethyl) 2-(Trifluoromethyl)benzoselenoate] | synergistic manner; also recorded: synergistic effect |  |  |  |  |  |  | 2.5 |  | 5.57 | >6 * | Type of Interaction ([1]; ratio 1.2:1, starting conc. 10 µM): Antagonism; Type of Interaction ([1]; ratio 2.4:1, starting conc. 10 µM): Strong antagonism; Type of Interaction ([1]; ratio 4.8:1, starting conc. 10 µM): Moderate synergism; Type of Interaction ([1]; ratio 9.6:1, starting conc. 10 µM): Additive effect; Type of Interaction ([1]; ratio 19.2:1, starting conc. 10 µM): Slight antagonism; Type of Interaction ([1]; ratio 38.4:1, starting conc. 10 µM): Moderate antagonism
CC(=O)C[Se]C(=O)c1ccc(C(C)(C)C)cc1 [K7, Se-(2-Oxopropyl) 4-(Tert-butyl)benzoselenoate] |  | Moderate antagonism | Antagonism | Moderate antagonism | Moderate antagonism | Antagonism | Antagonism | 2.7 | 2.7 |  | 1.45 | IC50 ([3]; COLO 320, 24 h): 2.57 µM
CC(=O)C[Se]C(=O)c1cccs1 [K1, Se-(2-Oxopropyl) Thiophene-2-carboselenoate] | synergistic manner; also recorded: interact synergistically |  |  |  |  |  |  | 2.5 | 2.6 | 1.47 | 1.52 | Type of Interaction ([1]; ratio 0.6:1, starting conc. 5 µM): Antagonism; Type of Interaction ([1]; ratio 1.2:1, starting conc. 5 µM): Additive effect; Type of Interaction ([1]; ratio 2.4:1, starting conc. 5 µM): Additive effect; Type of Interaction ([1]; ratio 4.8:1, starting conc. 5 µM): Slight synergism; Type of Interaction ([1]; ratio 9.6:1, starting conc. 5 µM): Slight antagonism
CC(=O)C[Se]C(=O)c1ccc(Br)cc1 [K3, Se-(2-Oxopropyl) 4-Bromobenzoselenoate] | synergistic manner; also recorded: interact synergistically | Moderate antagonism | Synergism | Moderate synergism | Antagonism | Moderate antagonism | Antagonism | 2.1 | 1.3 |  | 1.33 | IC50 ([3]; COLO 320, 24 h): 2.15 µM
